Test results: PubChem BioAssay AID492987 (Johns Hopkins Ion Channel Center, 2010)
Calls of active or inactive are those of the source.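 Rule for the calls: active = over 30% block of the TRPC6 ion channel at some tested dose, plus a fitted dose-response curve; inactive = no block at any dose, or no fitted curve.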

Target: Short transient receptor potential channel 6 (Mus musculus) (UniProt Q61143)
Test: mouse TRPC6 channel blockers, concentration series – HEK293 cells, membrane potential dye, IC50, selectivity assay for selective TRPC4 inhibitor project, dose response (AID 492987)
Details: for fluorescence ratio, lower = inhibition: at 20 µM (top of the series)

Sequence of Short transient receptor potential channel 6 (Mus musculus) (Q61143 whole entry, looked up): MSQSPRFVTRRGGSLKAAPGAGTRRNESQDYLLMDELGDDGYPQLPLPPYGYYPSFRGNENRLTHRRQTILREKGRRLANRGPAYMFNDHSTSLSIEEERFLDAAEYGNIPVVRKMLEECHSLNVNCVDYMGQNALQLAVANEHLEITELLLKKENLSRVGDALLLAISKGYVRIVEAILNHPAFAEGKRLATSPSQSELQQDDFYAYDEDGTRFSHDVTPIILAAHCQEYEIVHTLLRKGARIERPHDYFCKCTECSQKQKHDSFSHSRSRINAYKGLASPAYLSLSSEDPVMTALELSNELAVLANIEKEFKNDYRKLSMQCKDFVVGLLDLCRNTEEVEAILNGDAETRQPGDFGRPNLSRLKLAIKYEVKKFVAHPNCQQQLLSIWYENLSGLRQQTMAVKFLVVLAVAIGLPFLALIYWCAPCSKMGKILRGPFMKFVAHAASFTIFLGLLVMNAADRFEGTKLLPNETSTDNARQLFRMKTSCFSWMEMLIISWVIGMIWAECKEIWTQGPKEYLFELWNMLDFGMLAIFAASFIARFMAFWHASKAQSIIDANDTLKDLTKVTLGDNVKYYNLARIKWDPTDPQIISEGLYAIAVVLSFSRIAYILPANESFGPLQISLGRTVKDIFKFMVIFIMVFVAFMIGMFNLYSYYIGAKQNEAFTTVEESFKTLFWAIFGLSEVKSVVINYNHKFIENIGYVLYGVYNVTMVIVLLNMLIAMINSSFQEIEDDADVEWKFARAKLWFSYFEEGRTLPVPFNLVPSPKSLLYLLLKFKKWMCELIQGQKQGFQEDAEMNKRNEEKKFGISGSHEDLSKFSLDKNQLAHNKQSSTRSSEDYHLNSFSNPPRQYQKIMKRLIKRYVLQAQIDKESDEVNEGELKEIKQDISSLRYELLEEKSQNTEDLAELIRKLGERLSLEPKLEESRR

Compound | fluorescence ratio, lower = inhibition | IC50 (membrane potential dye fluorescence) [µM]
FC(F)(F)c1cc(N2CCCCC2)nc2ccccc12 | inactive | –
Cc1cc(N2CCCCCC2)nc2ccc(F)cc12 | inactive | –
Cc1ccnc(N2CCCCC2)n1 | inactive | –
c1ccc(-c2cc(N3CCCCC3)nc3ccccc23)cc1 | inactive | –
Cc1cc(N(C)CCN(C)C)nc2ccccc12 | inactive | –
Cc1cc(N2CCN(c3ncccn3)CC2)nc2ccccc12 | inactive | –
Cc1ccnc(N2CCCCC2)c1 | inactive | –
Cc1ccnc(N2CCCC2)c1 | inactive | –
Cc1cc(N2CCCC(O)C2)nc2ccccc12 (stereo not given) | inactive | –
c1ccc(-c2cc(N3CCCCCC3)nc3ccccc23)cc1 | inactive | –
c1ccc(-c2cc(N3CCCC3)nc3ccccc23)cc1 | inactive | –
Cc1cc(N2CCN(C)CC2)nc2ccccc12 | inactive | –
CCN(CC)c1cc(C)c2ccccc2n1 | inactive | –
Cc1cc(N2CCN(c3ccccc3C#N)CC2)nc2ccccc12 | inactive | –
Cc1cc(N2CCN(CC3CCCO3)CC2)nc2ccccc12 (stereo not given) | inactive | –
COc1ccc(N2CCN(c3cc(C)c4ccccc4n3)CC2)cc1 | inactive | –

Continued, values first:

fluorescence ratio, lower = inhibition | IC50 (membrane potential dye fluorescence) [µM] | Compound
inactive | – | Cc1cc(N2CCCCCC2)nc2c(C)cccc12
inactive | – | Cc1ccnc(N2CCCCCC2)n1
inactive | – | CCc1ccc2nc(N3CCCCCC3)cc(C)c2c1
inactive | – | Cc1ccnc(N2CCCC2)n1
inactive | – | COCCN(C)c1cc(C)c2ccccc2n1
– | 17.9 | Cc1cc(N2CCCCC2)nc2ccccc12
inactive | – | FC(F)(F)c1cc(N2CCCCCC2)nc2ccccc12
inactive | – | Cc1cc(N2CCOCC2)nc2ccccc12
inactive | – | Cc1ccnc(N2CCCCCC2)c1
inactive | – | Cc1cc(N2CCC(C)CC2)nc2ccccc12
inactive | – | Cc1cc(N2CCOc3ccccc32)nc2ccccc12
inactive | – | Cc1cc(N2CC(C)CC(C)C2)nc2ccccc12 (stereo not given)
inactive | – | Cc1cc(N2CCCCC2)nc2c(C)cccc12
inactive | – | COc1ccccc1N1CCN(c2cc(C)c3ccccc3n2)CC1
